Structures are written as SMILES.

This data set in a line: Toxicity in iv dosed 24 hrs fasted Swiss-Webster mouse. The format is organism-based. To be noted: in vivo.
A word on the LD50: it is the dose at which mortality reaches 50%. A lower LD50 goes with greater toxicity. Regarding `CCN1C[C@]2(COC(=O)c3ccccc3N3C(=O)C[C@H](C)C3=O)CC[C@H](OC)[C@]34C5C[C@@H]6[C@@H](OC(C)=O)C[C@@](O)(C5[C@H]6O)[C@@](O)([C@H]13)[C@@H](OC)C24` (stereo partly drawn), the median lethal dose (LD50) came to 5.7 mg/kg.

The molecule `CCN1C[C@]2(COC(=O)c3ccccc3N3C(=O)C[C@H](C)C3=O)CC[C@H](OC)[C@]34C5C[C@@H]6[C@@H](OC(C)=O)C[C@@](O)(C5[C@H]6OC(C)=O)[C@@](O)([C@H]13)[C@@H](OC)C24` (stereo partly drawn) came in with a median lethal dose (LD50) of 3.3 mg/kg. Against the preceding molecule, the LD50 is about 1.7-fold lower.

`CCN1C[C@]2(COC(=O)c3ccccc3N3C(=O)C[C@H](C)C3=O)CC[C@H](OC)[C@]34C5C[C@@H]6[C@@H](OC(C)=O)C[C@@](O)(C5[C@H]6OC)[C@@](O)([C@H]13)[C@@H](OC)C24` (stereo partly drawn) [GEYERLINE] displayed an LD50 of 6.2 mg/kg.

Values taken from ChEMBL document CHEMBL1155567, “Three new toxic norditerpenoid alkaloids from the low larkspur Delphinium nuttallianum” (J Nat Prod, 2000).
